PMC4015959, “The Structural and Functional Basis of Catalysis Mediated by NAD(P)H:acceptor Oxidoreductase (FerB) of Paracoccus denitrificans” (PLoS ONE, 2014)
Where “and” joins values, the source holds several entries; their conditions need not be identical. Equal entries are not always repeated.

Assays:
[1] = biological target: FerBHis6 wild-type and mutant variants; test: Steady-state kinetics of NADH oxidation with UQ-0 as acceptor (quinone reductase activity); type: biochemical, Paracoccus denitrificans; settings: UQ-0 100 µM, pH 7.4, 30 °C
Description: (§1) The kinetic parameters ± standard error were determined by fitting the data to the appropriate kinetic equation using nonlinear regression and the program Microcal Origin (version 5.0).

[2] = cited from earlier work
[3] = biological target: FerB (ferric reductase B, NAD(P)H:acceptor oxidoreductase) of Paracoccus denitrificans with a C-terminal six-histidine tag (Paracoccus denitrificans) (UniProt P84469); test: SAXS; […] protein, 290.15 K, buffer of the last purification step; dimer to tetramer; volume fractions by OLIGOMER
[4] = biological target: FerB (ferric reductase B, NAD(P)H:acceptor oxidoreductase) of Paracoccus denitrificans with a C-terminal six-histidine tag (Paracoccus denitrificans) (UniProt P84469); test: SAXS; 5.0 mg/mL protein, 290.15 K, buffer of the last purification step; dimer to tetramer; volume fractions by OLIGOMER
[5] = biological target: FerB (ferric reductase B, NAD(P)H:acceptor oxidoreductase) of Paracoccus denitrificans with a C-terminal six-histidine tag (Paracoccus denitrificans) (UniProt P84469); test: SAXS; 1.25 mg/mL protein, 290.15 K, buffer of the last purification step; dimer to tetramer; volume fractions by OLIGOMER
[6] = biological target: FerB (ferric reductase B, NAD(P)H:acceptor oxidoreductase) of Paracoccus denitrificans with a C-terminal six-histidine tag (Paracoccus denitrificans) (UniProt P84469); test: SEC; Superose 12, 0.1 mL of 0.5 mg/mL protein, 25 mM Tris-HCl pH 7.4, 0.5 mL/min, calibrated with marker proteins; holoenzyme
FerBHis6 = test: Stopped-flow reduction of enzyme-bound flavin cofactor by NADH; type: biochemical, Paracoccus denitrificans
Description: Stopped-flow spectrophotometry was performed on a SFM-3000 (Bio-Logic) stopped-flow system equipped with a 0.8- × 0.8-mm cuvette (FC-08). The temperature was kept constant at 10 °C with a thermostating water bath. Six measurements were averaged for each sample. […] Results from the stopped-flow experiments were analyzed in the Bio-Kine software (BioLogic).

FerBHis6-R95A = biological target: T1, FerBHis6-R95A (Paracoccus denitrificans, UniProt A1B9E3, R95A); test: NADH:flavin oxidoreductase initial-velocity kinetics of R95A mutant; type: biochemical
T1 sequence (A1B9E3 1-182 R95A): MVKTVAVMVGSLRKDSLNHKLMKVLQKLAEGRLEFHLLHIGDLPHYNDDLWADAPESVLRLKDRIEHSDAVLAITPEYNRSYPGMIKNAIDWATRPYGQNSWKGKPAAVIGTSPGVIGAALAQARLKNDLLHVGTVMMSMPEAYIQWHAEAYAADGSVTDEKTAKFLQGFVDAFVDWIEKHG
Description: as §1
(§2) Measurements were performed at 30 °C with 61 nM enzyme in 25 mM Tris-HCl buffer (pH 7.4).

[7] = system: Cc1cc2nc3c(=O)[nH]c(=O)nc-3n(C[C@H](O)[C@H](O)[C@H](O)CO)c2cc1C; test: purified protein, by the assay type; type: biochemical, Paracoccus denitrificans; settings: other: NADH as donor; pH 7.4; 30.0 °C
Description: as §1, §2

[8] = system: Cc1cc2nc3c(=O)[nH]c(=O)nc-3n(C[C@H](O)[C@H](O)[C@H](O)COP(=O)(O)O)c2cc1C; test: purified protein, by the assay type; type: biochemical, Paracoccus denitrificans; settings: other: NADH as donor
Description: as §1, §2

[9] = system: Cc1cc2nc3c(=O)[nH]c(=O)nc-3n(C[C@H](O)[C@H](O)[C@H](O)COP(=O)(O)OP(=O)(O)OC[C@H]3O[C@@H](n4cnc5c(N)ncnc54)[C@H](O)[C@@H]3O)c2cc1C; test: purified protein, by the assay type; type: biochemical, Paracoccus denitrificans; settings: other: NADH as donor; pH 7.4; 30.0 °C
Description: as §1, §2

apoFerBHis6 = apoFerBHis6 (Paracoccus denitrificans, UniProt A1B9E3); test: Fluorescence titration of free flavin by apoenzyme (dissociation constants); type: binding; settings: for Kd: 25 mM Tris-HCl, pH 7.4, 25 °C, read-out: Kd of apoFerBHis6-flavin complex
Description: Dissociation constants of apoenzyme-flavin complexes were determined from fluorescence titration with excitation at 450 nm by adding of constant amount of the wild-type and mutant variants of apoFerBHis6 into 25 mM Tris-HCl buffer (pH 7.4) with 100 nM FMN or riboflavin. Decreasing emission intensities at 519 nm were recorded on Luminescence Spectrotometer LS-50B (Perkin-Elmer). Series of different concentrations of FMN standard was used for setting of a calibration curve on fluorescence intensity. The dissociation constants Kd were calculated according to [22] and converted to the binding Gibbs energy changes ΔGb = -RTln (1/Kd) (where R, gas constant, T, absolute temperature), from which the variation of Gibbs energy due to mutation (ΔΔGb) was computed as the difference in binding energy between mutant and wild-type enzyme (ΔΔGb = ΔGb(mut) - ΔGb(wt)).

[10] = Standard redox potential by xanthine/xanthine oxidase method of Massey with reference dye; type: physicochemical; settings: 50 µM free FMN, pH 7.0
FerB = test: Activity toward external FMN, wild-type enzyme; type: biochemical, Paracoccus denitrificans
Description: as §1

[11] = FMN self-association in aqueous solution by 1H NMR chemical shift (literature); type: physicochemical; settings: order of magnitude, from association constant of ref 46
WrbA protein of E. coli = system: WrbA protein of E. coli; parameters: method as in PMID 9694845; settings: cited from earlier work
[12] = parameters: method as in PMID 17029888; settings: aqueous solutions; cited from earlier work
B. subtilis YhdA = system: B. subtilis YhdA; parameters: method as in PMID 16752898; settings: cited from earlier work
[13] = system: EmoB of Mesorhizobium sp. bacterium BNC1; settings: cited from earlier work

**Q.** Which “kinetic isotope effect for enzyme-catalyzed UQ-0 reduction” value [1] does the source give for `[2H][C@@H]1C=CN(C2OC(COP(=O)(O)OP(=O)(O)OCC3OC(n4cnc5c(N)ncnc54)C(O)C3O)C(O)C2O)C=C1C(N)=O` (stereo partly drawn) [[4R-^2H]NADH] here?
**A.** 1.07±0.13

**Q.** With `O=C1/C(=C2\Nc3ccc(S(=O)(=O)[O-])cc3C2=O)Nc2ccc(S(=O)(=O)[O-])cc21.[Na+].[Na+]` [indigo carmine] as the compound, how does the “E° ´ of reference dye” value [2] read?
**A.** −125 mV

**Q.** Which partial volume fraction of dimer [3] does the source give for “FerB (ferric reductase B, NAD(P)H:acceptor oxidoreductase) of Paracoccus denitrificans with a C-terminal six-histidine tag (from UniProt P84469 1-27) (enzyme)” here?
**A.** 13%

**Q.** What about the partial volume fraction of tetramer [3] of the same compound?
**A.** 87%

**Q.** What about the partial volume fraction of dimer [4] of the same compound?
**A.** 9%

**Q.** And the partial volume fraction of tetramer [4]?
**A.** 91%

**Q.** What about the partial volume fraction of dimer [5] of the same compound?
**A.** 34%

**Q.** And the partial volume fraction of tetramer [5]?
**A.** 66%

**Q.** What about the stoichiometry N [6] of the same compound?
**A.** 1.88 subunits

**Q.** For `[2H]C1C=CN(C2OC(COP(=O)(O)OP(=O)(O)OCC3OC(n4cnc5c(N)ncnc54)C(O)C3O)C(O)C2O)C=C1C(N)=O` (centres unmarked) [deuterated NADH], which “kinetic isotope effect for enzyme-catalyzed UQ-0 reduction” value [1] is on record?
**A.** about 6

**Q.** Which “E° ´ of reference dye” value [2] does the source give for `Nc1ccc2nc3ccc(N)cc3[n+](-c3ccccc3)c2c1.[Cl-]` [phenosafranin] here?
**A.** −252 mV

**Q.** For `[2H][C@H]1C=CN(C2OC(COP(=O)(O)OP(=O)(O)OCC3OC(n4cnc5c(N)ncnc54)C(O)C3O)C(O)C2O)C=C1C(N)=O` (stereo partly drawn) [[4S-^2H]NADH], which “kinetic isotope effect for enzyme-catalyzed UQ-0 reduction” value [1] is on record?
**A.** 5.45±0.21

**Q.** Which “NADH concentration giving half maximal effect on kobs” value (FerBHis6; 30 µM FerBHis6, 1–5000 µM NADH, 10 °C, anaerobic) does the source give for `NC(=O)C1=CN([C@@H]2O[C@H](COP(=O)(O)OP(=O)(O)OC[C@H]3O[C@@H](n4cnc5c(N)ncnc54)[C@H](O)[C@@H]3O)[C@@H](O)[C@H]2O)C=CC1` [NADH] here?
**A.** 6.4 ± 1.0 µM

**Q.** And the “pH dependence of kobs” value (FerBHis6; 5 mM NADH, pH interval 3–9)?
**A.** did not depend on pH

**Q.** What about the “limit of kobs (apparent electron-transfer rate constant for FerB-NADH complex)” value (FerBHis6; 10 °C, anaerobic) of the same compound?
**A.** 147.0 ± 0.4 s⁻¹ and ~140 s⁻¹

**Q.** And the “Michaelis constant for NADH” value (FerBHis6-R95A; FMN as acceptor, bisubstrate ping-pong fit)?
**A.** 33 ± 7 µM

**Q.** With `O=C1c2ccccc2C(=O)c2cc(S(=O)(=O)O)ccc21` [anthraquinone-2-sulfonate] as the compound, how does the “E° ´ of reference dye” value [2] read?
**A.** −225 mV

**Q.** Which Km [7] does the source give for “FerBHis6-R95A (Paracoccus denitrificans PD1222; R95A)” here?
**A.** 59 ± 12 µM

**Q.** What about the kcat [7] of the same compound?
**A.** 75 ± 10 s⁻¹

**Q.** What about the kcat ([8]; 30 °C, 25 mM Tris-HCl pH 7.4) of the same compound?
**A.** 50 ± 5 s⁻¹

**Q.** What about the Km ([8]; pH 7.4, 30.0 °C) of the same compound?
**A.** 111 ± 15 µM

**Q.** What about the Km [9] of the same compound?
**A.** 95 ± 7 µM

**Q.** What about the kcat [9] of the same compound?
**A.** 38 ± 1 s⁻¹

**Q.** Which results are given for `Cc1cc2nc3c(=O)[nH]c(=O)nc-3n(C[C@H](O)[C@H](O)[C@H](O)CO)c2cc1C` [riboflavin]?
**A.** Kd (apoFerBHis6): 6.58 µM and 6.6 µM; increase in Kd relative to FMN (apoFerBHis6; riboflavin vs FMN): 244 fold

**Q.** For `Cc1cc2nc3c(=O)[nH]c(=O)nc-3n(C[C@H](O)[C@H](O)[C@H](O)COP(=O)(O)O)c2cc1C` [FMN, flavin mononucleotide], which Kd (apoFerBHis6) is on record?
**A.** 0.027 ± 0.002 µM

**Q.** And the “Gibbs binding energy coming from the phosphate” value (apoFerBHis6; calculated from Kd values of FMN and riboflavin)?
**A.** -3.25 kcal/mol

**Q.** What about the “total Gibbs binding energy” value (apoFerBHis6; calculated from experimental Kd) of the same compound?
**A.** -10.3 kcal/mol

**Q.** What about the “E° ´ of free flavin” value [10] of the same compound?
**A.** −212 mV

**Q.** And the “kinetic solvent isotope effect kobs(H2O)/kobs(D2O)” value (FerBHis6; 99% deuterium oxide, buffer pH 6.8)?
**A.** 1.9

**Q.** What about the “ratio of kcat toward external FMN to kcat toward UQ-0” value (FerB) of the same compound?
**A.** about 0.006

**Q.** And the “kcat (catalytic constant) of flavin reduction” value (FerBHis6-R95A; NADH as donor, 30 °C, 25 mM Tris-HCl pH 7.4)?
**A.** 50 s⁻¹

**Q.** And the “ratio of kcat toward external FMN to kcat toward UQ-0” value (FerBHis6-R95A; R95A mutation)?
**A.** 0.32

**Q.** And the “expected dissociation constant of self-association” value [11]?
**A.** ~10 mM

**Q.** What about the “E° ´ published value” ([2]; free FMN) of the same compound?
**A.** −207 mV

**Q.** What about the Kd (WrbA protein of E. coli) of the same compound?
**A.** 2 µM

**Q.** What about the self-association constant [12] of the same compound?
**A.** 20 to 100 M⁻¹

**Q.** What about the “kcat of FMN reduction” value (B. subtilis YhdA) of the same compound?
**A.** 60 to 70 s⁻¹

**Q.** What about the “kcat of FMN reduction” value ([13]; calculated from Vmax using subunit mass 21 412 Da) of the same compound?
**A.** 397 s⁻¹

**Q.** And the Vmax [13]?
**A.** 1111 µmol/min/mg

**Q.** With `COC1=C(OC)C(=O)C(C)=CC1=O` [UQ-0, 2,3-dimethoxy-5-methyl-1,4-bezoquinone] as the compound, how does the “time to complete oxidation of dithionite pre-reduced flavin cofactor” value (FerBHis6; 200 µM UQ-0, within stopped-flow dead time, all proteins) read?
**A.** ≤ 0.4 ms
